Among the data in ChEMBL document CHEMBL1909046, “DrugMatrix in vitro pharmacology data” are IC50 and Ki values, retold here.

As usually defined, the IC50 is the concentration that inhibits the measured activity by half. A word on the Ki: it is the dissociation constant of the complex between target and ligand, obtained from inhibition or displacement.

Epidermal growth factor receptor, sequence (P00533 whole entry): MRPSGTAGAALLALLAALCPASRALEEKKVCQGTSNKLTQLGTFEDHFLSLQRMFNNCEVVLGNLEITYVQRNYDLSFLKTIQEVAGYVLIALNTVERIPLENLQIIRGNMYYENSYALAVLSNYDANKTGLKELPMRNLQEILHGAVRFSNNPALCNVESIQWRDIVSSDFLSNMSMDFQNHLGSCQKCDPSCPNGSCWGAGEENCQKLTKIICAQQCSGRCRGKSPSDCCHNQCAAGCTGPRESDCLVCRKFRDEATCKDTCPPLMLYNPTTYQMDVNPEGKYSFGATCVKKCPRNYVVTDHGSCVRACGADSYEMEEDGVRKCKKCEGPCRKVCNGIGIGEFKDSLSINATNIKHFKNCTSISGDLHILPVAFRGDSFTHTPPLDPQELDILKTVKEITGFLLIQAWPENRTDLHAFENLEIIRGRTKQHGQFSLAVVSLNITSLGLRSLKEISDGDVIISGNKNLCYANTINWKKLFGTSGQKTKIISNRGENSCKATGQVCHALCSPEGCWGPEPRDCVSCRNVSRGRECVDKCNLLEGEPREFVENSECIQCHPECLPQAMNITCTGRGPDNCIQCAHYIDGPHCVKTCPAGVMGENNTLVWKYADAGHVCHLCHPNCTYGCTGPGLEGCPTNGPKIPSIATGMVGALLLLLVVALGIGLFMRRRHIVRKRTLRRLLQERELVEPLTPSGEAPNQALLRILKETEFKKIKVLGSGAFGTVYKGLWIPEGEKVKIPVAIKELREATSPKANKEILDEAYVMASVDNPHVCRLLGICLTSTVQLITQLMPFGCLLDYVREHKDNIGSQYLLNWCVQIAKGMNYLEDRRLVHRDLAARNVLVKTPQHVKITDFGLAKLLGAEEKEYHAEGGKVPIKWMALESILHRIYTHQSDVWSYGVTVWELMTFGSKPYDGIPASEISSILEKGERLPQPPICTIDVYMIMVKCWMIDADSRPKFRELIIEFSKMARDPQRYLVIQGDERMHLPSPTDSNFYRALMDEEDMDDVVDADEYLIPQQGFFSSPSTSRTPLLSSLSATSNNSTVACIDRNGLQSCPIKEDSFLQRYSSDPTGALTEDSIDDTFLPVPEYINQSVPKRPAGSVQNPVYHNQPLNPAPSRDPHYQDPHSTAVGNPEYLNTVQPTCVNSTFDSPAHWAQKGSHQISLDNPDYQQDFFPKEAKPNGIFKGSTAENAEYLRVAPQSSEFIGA

One assay addresses Protein kinase C alpha type (Homo sapiens, UniProt P17252).
Experiment: not given
It counts as cell-based. The conditions noted are these: sf9.
In the case of `COC(=O)[C@@H]1[C@H]2C[C@H]3c4[nH]c5ccccc5c4CCN3C[C@@H]2CC[C@@H]1O` [YOHIMBINE], the IC50 entry is on record as “Not Active”.

Regarding `COc1ccc(CCN2CCC(Nc3nc4ccccc4n3Cc3ccc(F)cc3)CC2)cc1` [ASTEMIZOLE], the half-inhibitory concentration (IC50) result is “Not Active”.

For `CN(C)CCCN1c2ccccc2CCc2ccc(Cl)cc21` [CLOMIPRAMINE], the IC50 result is on record as “Not Active”.

A further assay addresses Epidermal growth factor receptor (Homo sapiens, UniProt P00533). As to the kind of experiment: DRUGMATRIX: Protein Tyrosine Kinase, EGF Receptor enzyme inhibition (substrate: Poly(Glu:Tyr)). It counts as cell-based, Insect cells. As to conditions: Not Active = under 50% inhibition at 10 µM; read-out: IC50.
Take `COc1ccc(CCN2CCC(Nc3nc4ccccc4n3Cc3ccc(F)cc3)CC2)cc1` [ASTEMIZOLE]: the IC50 was 6.06 µM.

The same assay, now with this note: insect cells; Not Active = under 50% inhibition at 10 µM.
On to `COC(=O)[C@@H]1[C@H]2C[C@H]3c4[nH]c5ccccc5c4CCN3C[C@@H]2CC[C@@H]1O` [YOHIMBINE], for which the IC50 entry was “Not Active”.

Turning to `CN(C)CCCN1c2ccccc2CCc2ccc(Cl)cc21` [CLOMIPRAMINE], the IC50 entry is on record as “Not Active”.

System in a further assay: not listed separately
In words: DRUGMATRIX: Phosphodiesterase PDE4 enzyme inhibition (substrate: [3H]cAMP + cAMP). The conditions noted are these: u-937; Not Active = under 50% inhibition at 10 µM.
`COC(=O)[C@@H]1[C@H]2C[C@H]3c4[nH]c5ccccc5c4CCN3C[C@@H]2CC[C@@H]1O` [YOHIMBINE]: the IC50 result is “Not Active” and the Ki entry is recorded as “Not Active”.

In the next assay the target is T1, Alpha-1A adrenergic receptor (Rattus norvegicus, UniProt P43140).
T1 sequence (P43140 whole entry): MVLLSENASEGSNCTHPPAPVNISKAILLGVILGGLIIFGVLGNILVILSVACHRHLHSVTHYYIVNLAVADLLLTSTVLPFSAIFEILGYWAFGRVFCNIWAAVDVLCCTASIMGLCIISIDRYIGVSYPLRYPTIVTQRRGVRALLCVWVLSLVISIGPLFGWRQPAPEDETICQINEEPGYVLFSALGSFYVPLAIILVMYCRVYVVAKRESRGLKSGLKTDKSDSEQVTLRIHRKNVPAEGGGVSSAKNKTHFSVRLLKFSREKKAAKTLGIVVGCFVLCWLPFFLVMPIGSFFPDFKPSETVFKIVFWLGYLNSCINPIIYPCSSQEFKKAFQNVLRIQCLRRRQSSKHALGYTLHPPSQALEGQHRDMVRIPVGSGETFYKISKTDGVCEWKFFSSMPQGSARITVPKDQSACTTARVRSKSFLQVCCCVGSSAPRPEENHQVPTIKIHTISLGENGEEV
In words: DRUGMATRIX: Alpha-1A adrenergic receptor radioligand binding (ligand: prazosin). As to conditions: Not Active = under 50% inhibition at 10 µM; read-out: IC50. It counts as cell membranes, Wistar, Submaxillary gland, Membrane.
Consider `COc1ccc(CCN2CCC(Nc3nc4ccccc4n3Cc3ccc(F)cc3)CC2)cc1` [ASTEMIZOLE], for which the IC50 amounted to 0.024 µM.

Staying with this assay, now noted: Not Active = under 50% inhibition at 10 µM; read-out: Ki.
In the case of `COc1ccc(CCN2CCC(Nc3nc4ccccc4n3Cc3ccc(F)cc3)CC2)cc1` [ASTEMIZOLE], the Ki came to 0.0099 µM.

For a further assay, the target named is Prostaglandin G/H synthase 1 (Homo sapiens, UniProt P23219). As to the kind of experiment: biochemical. As to conditions: platelet. It counts as tissue-based, Platelet.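 Note: inhibition of COX-1 enzyme activity, with arachidonic acid supplied as substrate; in other assays of this panel Not Active means under 50% inhibition at 10 µM.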
Prostaglandin G/H synthase 1, sequence (P23219 whole entry): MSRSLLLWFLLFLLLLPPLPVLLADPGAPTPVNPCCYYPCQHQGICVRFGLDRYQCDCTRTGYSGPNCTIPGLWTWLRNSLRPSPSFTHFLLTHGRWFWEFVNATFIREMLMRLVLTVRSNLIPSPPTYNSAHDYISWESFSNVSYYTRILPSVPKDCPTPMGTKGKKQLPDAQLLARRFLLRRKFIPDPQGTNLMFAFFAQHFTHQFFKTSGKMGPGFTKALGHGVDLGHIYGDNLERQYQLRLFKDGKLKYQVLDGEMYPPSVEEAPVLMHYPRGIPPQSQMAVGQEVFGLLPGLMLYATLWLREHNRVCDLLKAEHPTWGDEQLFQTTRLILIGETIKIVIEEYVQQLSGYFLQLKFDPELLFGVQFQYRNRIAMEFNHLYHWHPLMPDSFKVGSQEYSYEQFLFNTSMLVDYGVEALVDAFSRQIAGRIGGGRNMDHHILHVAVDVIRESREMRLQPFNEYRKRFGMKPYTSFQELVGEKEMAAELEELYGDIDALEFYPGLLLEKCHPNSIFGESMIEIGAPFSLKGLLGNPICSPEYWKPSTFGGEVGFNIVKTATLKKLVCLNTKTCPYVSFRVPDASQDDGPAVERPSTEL
`COC(=O)[C@@H]1[C@H]2C[C@H]3c4[nH]c5ccccc5c4CCN3C[C@@H]2CC[C@@H]1O` [YOHIMBINE]: the IC50 result is “Not Active”.

Consider `COc1ccc(CCN2CCC(Nc3nc4ccccc4n3Cc3ccc(F)cc3)CC2)cc1` [ASTEMIZOLE], for which the IC50 result is recorded as “Not Active”.

Take `CN(C)CCCN1c2ccccc2CCc2ccc(Cl)cc21` [CLOMIPRAMINE]: the IC50 result was “Not Active”.

The next assay has as its target T2, D(4) dopamine receptor (Homo sapiens, UniProt P21917).
T2 sequence (P21917 whole entry): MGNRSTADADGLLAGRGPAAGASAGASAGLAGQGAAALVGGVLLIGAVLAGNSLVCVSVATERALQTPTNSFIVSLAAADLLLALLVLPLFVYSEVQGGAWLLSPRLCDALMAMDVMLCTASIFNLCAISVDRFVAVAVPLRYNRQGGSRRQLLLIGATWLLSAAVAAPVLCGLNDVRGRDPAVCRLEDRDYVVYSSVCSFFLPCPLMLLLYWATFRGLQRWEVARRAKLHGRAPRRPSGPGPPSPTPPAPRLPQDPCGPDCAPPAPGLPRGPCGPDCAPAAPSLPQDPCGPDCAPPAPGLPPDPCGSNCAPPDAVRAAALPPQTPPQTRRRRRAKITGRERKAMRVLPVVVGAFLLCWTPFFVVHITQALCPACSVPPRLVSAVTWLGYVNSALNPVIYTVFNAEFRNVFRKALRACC
In words: DRUGMATRIX: Dopamine D4.2 radioligand binding (ligand: [3H] Spiperone). It counts as cell membranes, CHO-K1, Membrane. As to conditions: cho-k1; Not Active = under 50% inhibition at 10 µM.
In the case of `COC(=O)[C@@H]1[C@H]2C[C@H]3c4[nH]c5ccccc5c4CCN3C[C@@H]2CC[C@@H]1O` [YOHIMBINE], the IC50 result is on record as “Not Active”.

In the case of `CN(C)CCCN1c2ccccc2CCc2ccc(Cl)cc21` [CLOMIPRAMINE], the IC50 entry is given as “Not Active”.

For a further assay, the target named is Beta-3 adrenergic receptor (Homo sapiens, UniProt P13945). As to the kind of experiment: DRUGMATRIX: Adrenergic beta3 radioligand binding (ligand: [125I] Cyanopindolol). It counts as cell membranes, HEK293, Membrane. As to conditions: hek293; Not Active = under 50% inhibition at 10 µM.
Beta-3 adrenergic receptor, sequence (P13945 whole entry): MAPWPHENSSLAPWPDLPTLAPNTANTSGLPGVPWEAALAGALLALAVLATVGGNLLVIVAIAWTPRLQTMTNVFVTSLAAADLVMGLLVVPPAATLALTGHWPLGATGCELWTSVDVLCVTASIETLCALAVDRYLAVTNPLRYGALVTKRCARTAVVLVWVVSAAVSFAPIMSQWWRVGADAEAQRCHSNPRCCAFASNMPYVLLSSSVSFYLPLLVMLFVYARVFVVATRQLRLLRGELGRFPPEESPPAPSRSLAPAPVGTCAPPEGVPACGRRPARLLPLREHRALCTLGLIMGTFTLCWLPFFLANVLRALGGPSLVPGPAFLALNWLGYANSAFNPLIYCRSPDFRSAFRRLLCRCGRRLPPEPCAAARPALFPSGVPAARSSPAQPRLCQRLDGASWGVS
Take `COC(=O)[C@@H]1[C@H]2C[C@H]3c4[nH]c5ccccc5c4CCN3C[C@@H]2CC[C@@H]1O` [YOHIMBINE]: the IC50 entry is “Not Active”.

Turning to `CN(C)CCCN1c2ccccc2CCc2ccc(Cl)cc21` [CLOMIPRAMINE], the IC50 result is given as “Not Active”.

A further assay has as its target Glycine receptor (Rattus norvegicus, UniProt P22771+P24524+P07727+P20781). Note: in other assays of this panel Not Active means under 50% inhibition at 10 µM.
Experiment: not given
Conditions: not given
It counts as cell membranes, Wistar, Spinal cord, Membrane.
As for `COC(=O)[C@@H]1[C@H]2C[C@H]3c4[nH]c5ccccc5c4CCN3C[C@@H]2CC[C@@H]1O` [YOHIMBINE], the IC50 entry is “Not Active”.

`COc1ccc(CCN2CCC(Nc3nc4ccccc4n3Cc3ccc(F)cc3)CC2)cc1` [ASTEMIZOLE]: the IC50 result is on record as “Not Active”.

With `CN(C)CCCN1c2ccccc2CCc2ccc(Cl)cc21` [CLOMIPRAMINE], the IC50 result is listed as “Not Active”.

Another assay deals with T3, Alpha-1D adrenergic receptor (Homo sapiens, UniProt P25100).
T3 sequence (P25100 whole entry): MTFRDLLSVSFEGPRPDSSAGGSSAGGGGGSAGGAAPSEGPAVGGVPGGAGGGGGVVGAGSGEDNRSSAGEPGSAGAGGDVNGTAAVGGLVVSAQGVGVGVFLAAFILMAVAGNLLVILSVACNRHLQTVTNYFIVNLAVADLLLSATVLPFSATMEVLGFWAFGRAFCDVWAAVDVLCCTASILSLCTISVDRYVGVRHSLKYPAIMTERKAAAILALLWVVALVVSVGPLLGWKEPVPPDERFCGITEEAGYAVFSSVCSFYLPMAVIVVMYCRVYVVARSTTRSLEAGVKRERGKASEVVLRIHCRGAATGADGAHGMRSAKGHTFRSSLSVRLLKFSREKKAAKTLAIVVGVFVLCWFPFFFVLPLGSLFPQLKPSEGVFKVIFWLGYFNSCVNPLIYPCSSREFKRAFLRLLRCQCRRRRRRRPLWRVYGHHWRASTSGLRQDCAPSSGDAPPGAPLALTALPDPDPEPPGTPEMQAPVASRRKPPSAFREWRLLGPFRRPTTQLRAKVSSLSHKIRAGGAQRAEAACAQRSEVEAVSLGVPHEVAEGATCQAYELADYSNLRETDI
Experiment: not given
It counts as cell membranes, HEK293, Membrane. The conditions noted are these: read-out: IC50.
Consider `COc1ccc(CCN2CCC(Nc3nc4ccccc4n3Cc3ccc(F)cc3)CC2)cc1` [ASTEMIZOLE], for which the IC50 was 0.769 µM.

With `CN(C)CCCN1c2ccccc2CCc2ccc(Cl)cc21` [CLOMIPRAMINE], the IC50 was determined as 0.18 µM.

The same assay, now with this note: read-out: Ki.
`COc1ccc(CCN2CCC(Nc3nc4ccccc4n3Cc3ccc(F)cc3)CC2)cc1` [ASTEMIZOLE]: the Ki was determined as 0.378 µM.

`CN(C)CCCN1c2ccccc2CCc2ccc(Cl)cc21` [CLOMIPRAMINE]: the Ki worked out at 0.088 µM.

Another assay has as its target T4, Cathepsin G (Homo sapiens, UniProt P08311).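 Note: inhibition of Cathepsin G enzyme activity, tested on an AMC-conjugated peptide substrate; in other assays of this panel Not Active means under 50% inhibition at 10 µM.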
T4 sequence (P08311 whole entry): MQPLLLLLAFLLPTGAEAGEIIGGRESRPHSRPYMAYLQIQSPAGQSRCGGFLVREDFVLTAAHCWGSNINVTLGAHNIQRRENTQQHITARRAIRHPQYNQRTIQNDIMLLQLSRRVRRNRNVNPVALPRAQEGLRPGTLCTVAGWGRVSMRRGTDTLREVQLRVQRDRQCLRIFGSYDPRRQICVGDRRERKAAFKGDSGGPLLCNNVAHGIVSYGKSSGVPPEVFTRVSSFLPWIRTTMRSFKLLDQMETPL
Experiment: not given
It counts as tissue-based. The conditions noted are these: neutrophil.
Regarding `COC(=O)[C@@H]1[C@H]2C[C@H]3c4[nH]c5ccccc5c4CCN3C[C@@H]2CC[C@@H]1O` [YOHIMBINE], the IC50 entry was “Not Active”.

For the compound `COc1ccc(CCN2CCC(Nc3nc4ccccc4n3Cc3ccc(F)cc3)CC2)cc1` [ASTEMIZOLE], the IC50 result is “Not Active”.

Consider `CN(C)CCCN1c2ccccc2CCc2ccc(Cl)cc21` [CLOMIPRAMINE], for which the IC50 entry is listed as “Not Active”.

Another assay concerns the target T5, Calcitonin receptor (Homo sapiens, UniProt P30988). Note: in other assays of this panel Not Active means under 50% inhibition at 10 µM.
T5 sequence (P30988 whole entry): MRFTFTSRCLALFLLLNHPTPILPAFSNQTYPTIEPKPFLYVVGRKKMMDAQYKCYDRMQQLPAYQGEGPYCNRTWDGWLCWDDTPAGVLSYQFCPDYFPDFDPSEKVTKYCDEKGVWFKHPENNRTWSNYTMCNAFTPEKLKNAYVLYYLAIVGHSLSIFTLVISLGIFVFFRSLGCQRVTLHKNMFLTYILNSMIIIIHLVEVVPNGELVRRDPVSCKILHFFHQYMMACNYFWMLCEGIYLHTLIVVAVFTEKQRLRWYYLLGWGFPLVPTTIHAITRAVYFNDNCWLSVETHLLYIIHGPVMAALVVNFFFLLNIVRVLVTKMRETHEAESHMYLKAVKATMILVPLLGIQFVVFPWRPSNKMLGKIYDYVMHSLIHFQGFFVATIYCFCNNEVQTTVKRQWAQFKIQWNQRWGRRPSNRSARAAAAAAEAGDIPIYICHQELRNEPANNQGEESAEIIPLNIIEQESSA
Experiment: not given
It counts as cell membranes, Membrane. As to conditions: t47d.
As for `COC(=O)[C@@H]1[C@H]2C[C@H]3c4[nH]c5ccccc5c4CCN3C[C@@H]2CC[C@@H]1O` [YOHIMBINE], the IC50 entry is listed as “Not Active”.

On to `COc1ccc(CCN2CCC(Nc3nc4ccccc4n3Cc3ccc(F)cc3)CC2)cc1` [ASTEMIZOLE], for which the IC50 entry is “Not Active”.

With `CN(C)CCCN1c2ccccc2CCc2ccc(Cl)cc21` [CLOMIPRAMINE], the IC50 result is listed as “Not Active”.

System in another assay: not listed separately
In words: DRUGMATRIX: Sodium/nucleoside co-transporter radioligand binding (ligand: nitrobenzylthioinosine). It counts as cell membranes, Cavia porcellus, Dunkin-Hartley, Cerebral cortex, Membrane. As to conditions: Not Active = under 50% inhibition at 10 µM.
For the compound `COC(=O)[C@@H]1[C@H]2C[C@H]3c4[nH]c5ccccc5c4CCN3C[C@@H]2CC[C@@H]1O` [YOHIMBINE], the IC50 result was “Not Active” and the Ki result is reported as “Not Active”.
